# Reference: patent US8748395B2, “Cell-permeable peptide inhibitors of the JNK signal transduction pathway” (Xigen Inflammation Ltd., priority 2006, dated 2014)
# How the values were obtained:
# gerbil = conditions: in vivo; cited from earlier work
# [1] = system: primary embryonic cultures and differentiated PC12 cells; conditions: dosages that inhibit activation of JNKs; cited from earlier work
# AP-1 DNA binding complex = assay: Gel retardation assay with AP-1 probe, HeLa cell nuclear extracts, TNF-α; type: cell-based; conditions: peptide added 30 minutes before TNF-α 5 ng/ml
# WiDr cells = assay: Irradiation (30 Gy) induced apoptosis of WiDr cells; type: cell-based, human; conditions: 1 μM added 30 minutes before 30 Gy, analyzed 48 hours later
# Experimental: JNK is also activated by ionizing radiation. To determine whether inventive TAT-IB(s) peptides would provide protection against radiation-induced JNK damage, “WiDr” cells were irradiated (30 Gy) in presence or absence of D-TAT, inventive L-TAT-IB1(s) or inventive D-TAT-IB1(s) peptides (1 μM added 30 minutes before irradiation). Control cells (CTRL) were not irradiated. Cells were analyzed 48 hours later by means of PI and Hoechst 3342 staining, as described above. N=3, SEM are indicated.
# JNK = conditions: JBDs; cited from earlier work
# βTC-3 cell cultures = assay: Cellular import of fluorescein-labeled TAT and TAT-IB1(s) peptides; type: cell-based
# Experimental: The ability of the L- and D-enantiomeric forms of TAT and inventive TAT-IB1(s) peptides (“TAT-IB peptides”) to enter cells was evaluated. L-TAT, D-TAT, inventive L-TAT-IB1(s), and inventive D-TAT-IB1(s) peptides [SEQ ID NOs: 5, 6, 9 and 12, respectively] were labeled by N-terminal addition of a glycine residue conjugated to fluorescein. Labeled peptides (1 μM) were added to βTC-3 cell cultures, which were maintained as described in Example 3. At predetermined times cells were washed with PBS and fixed for five minutes in ice-cold methanol-acetone (1:1) before being examined under a fluorescence microscope. Fluorescein-labeled BSA (1 μM, 12 moles/mole BSA) was used as a control.
# [2] = system: activation of c-Jun by JNK; assay: GAL4 reporter system (GAL-Jun, 5xGAL-LUC) in HeLa cells with MKK4/MKK7 co-transfection; type: cell-based
# Source text: To determine whether the inventive cell-permeable peptides could block JNK signaling in vivo, we used a heterologous GAL4 system. HeLa cells, cultured as described above, were co-transfected with the 5×GAL-LUC reporter vector together with the GAL-Jun expression construct (Stratagene) comprising the activation domain of c-jun (amino acids 1-89) linked to the GAL4 DNA-binding domain. Activation of JNK was achieved by the co-transfection of vectors expressing the directly upstream kinases MKK4 and MKK7 (see Whitmarsh et al., Science 285: 1573 (1999)). Briefly, 3×10^5 cells were transfected with the plasmids in 3.5-cm dishes using DOTAP (Boehringer Mannheim) following instructions from the manufacturer. For experiments involving GAL-Jun, 20 ng of the plasmid was transfected with 1 μg of the reporter plasmid pFR-Luc (Stratagene) and 0.5 μg of either MKK4 or MKK7 expressing plasmids. Three hours following transfection, cell media were changed and TAT and TAT-IB1(s) peptides (1 μM) were added. The luciferase activities were measured 16 hours later using the “Dual Reporter System” from PROMEGA® after normalization to protein content. […] Because HeLa cells express JNK1 and JNK2 isoforms but not JNK3, we transfected cells with JNK3.
# βTC-3 cells = assay: Inhibition of IL-1β induced pancreatic β-cell death by TAT-IB peptides; type: cell-based
# Experimental: We investigated the effects of the inventive L-TAT-IB(s) peptides on the promotion of β-cell apoptosis elicited by IL-1. PTC-3 cell cultures were incubated for 30 minutes with 1 μM of inventive L-TAT-IB1(s) peptides followed by 10 ng/mL of IL-1. A second addition of peptide (1 μM) was performed 24 hours later. Apoptotic cells were counted after two days of incubation with IL-1β using propidium iodide (red stained cell are dead cells) and Hoechst 33342 (blue stained cell are cells with intact plasma membrane) nuclear staining.
# Long term inhibition of IL-1 induced cells death was examined by treating βTC-3 cells as described above, except that incubation of the cells with the peptides and IL-1β was sustained for 12 days. Additional peptides (1 μM) were added each day and additional IL-1β (10 ng/mL) was added every 2 days. […] Taken together, these experiments provide evidence that inventive TAT-IB(s) peptides are biologically active molecules able to prevent the effects of JNK signaling on cell fate.
# Inhibition of IL-1β induced pancreatic β-cell death by the inventive D-TAT-IB1(s) peptide was analyzed. βTC-3 cells were incubated as described above for 30 minutes with one single addition of the indicated peptides (1, μM), then IL-1 (10 ng/ml) was added.
# Apoptotic cells were then counted after two days of incubation with IL-1β by use of Propidium Iodide and Hoechst 33342 nuclear staining. A minimum of 1,000 cells were counted for each experiment. Standard Error of the Means (SEM) are indicated, n=5.
# Long term inhibition of IL-1P induced cell-death by the D-TAT-IB1 peptide was also analyzed. βTC-3 cells were incubated as above for 30 minutes with one single addition of the indicated peptides (1 μM), then IL-1β (10 ng/ml) was added, followed by addition of the cytokine every two days. Apoptotic cells were then counted after 15 days of incubation with IL-1 by use of propidium iodide and Hoechst 33342 nuclear staining. […] A minimum of 1.000 cells were counted for each experiment.
# JNK3 = biological target: T1, JNK3 (Homo sapiens, UniProt P53779); assay: Solid phase kinase assay: JNK3 phosphorylation of Elk1; type: biochemical; conditions: dose response 0-25 μM, GST-ELK1 (aa 307-428)
# T1 construct: host or cells: rabbit reticulocyte lysate, in vitro transcription/translation
# T1 sequence (P53779 whole entry, species assumed, the tested form may be a part): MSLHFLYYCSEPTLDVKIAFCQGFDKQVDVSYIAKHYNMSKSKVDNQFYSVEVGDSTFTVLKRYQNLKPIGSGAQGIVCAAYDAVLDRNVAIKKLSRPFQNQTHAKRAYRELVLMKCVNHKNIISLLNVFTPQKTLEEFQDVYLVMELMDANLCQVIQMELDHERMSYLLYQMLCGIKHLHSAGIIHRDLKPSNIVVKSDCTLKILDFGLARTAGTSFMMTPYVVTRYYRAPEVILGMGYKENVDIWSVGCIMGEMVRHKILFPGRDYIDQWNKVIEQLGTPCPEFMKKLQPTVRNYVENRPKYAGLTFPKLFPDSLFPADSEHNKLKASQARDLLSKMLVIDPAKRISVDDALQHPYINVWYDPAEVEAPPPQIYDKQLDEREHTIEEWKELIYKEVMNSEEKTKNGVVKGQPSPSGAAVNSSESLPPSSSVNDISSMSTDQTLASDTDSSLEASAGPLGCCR
# Experimental: (§1) The effects of the peptides on JNKs-mediated phosphorylation of their target transcription factors were investigated in vitro. Recombinant and non activated JNK1, JNK2 and JNK3 were produced using a TRANSCRIPTION AND TRANSLATION rabbit reticulocyte lysate kit (PROMEGA®) and used in solid phase kinase assays with c-jun, ATF2 and Elk1, either alone or fused to glutathione-S-transferase (GST), as substrates. Dose response studies were performed wherein inventive L-TAT or L-TAT-IB1(s) peptides (0-25 μM) were mixed with the recombinant JNK1, JNK2, or JNK3 kinases in reaction buffer (20 mM Tris-acetate, 1 mM EGTA, 10 mM p-nitrophenyl-phosphate (pNPP), 5 mM sodium pyrophosphate, 10 mM p-glycerophosphate, 1 mM dithiothreitol) for 20 minutes. The kinase reactions were then initiated by the addition of 10 mM MgCl2 and 5 pCi^33P-γ-dATP and 1 μg of either GST-Jun (aa 1-89), GST-AFT2 (aa 1-96) or GST-ELK1 (aa 307-428). GST-fusion proteins were purchased from Stratagene (La Jolla, Calif.).
# (§2) Ten μL of glutathione-agarose beads were also added to the mixture. Reaction products were then separated by SDS-PAGE on a denaturing 10% polyacrylamide gel. Gels were dried and subsequently exposed to X-ray films (Kodak).
# [3] = system: recombinant JNK1, JNK2 and JNK3; assay: Solid phase kinase assay: JNK-mediated phosphorylation of c-Jun, ATF2 and Elk1; type: biochemical
# Experimental: as §1, §2
# The ability of D-TAT, inventive D-TAT-IB1(s) and inventive L-TAT-IB1 (s) peptides (0-250 μM dosage study) to inhibit GST-Jun (aa 1-73) phosphorylation by recombinant JNK1, JNK2, and JNK3 by were analyzed as described above. Overall, D-TAT-IB1(s) peptide decreased JNK-mediated phosphorylation of c-Jun, but at levels approximately 10-20 fold less efficiently than L-TAT-IB1(s).
# [4] = system: JNKs activated by stressful stimuli; assay: c-Jun phosphorylation by activated JNKs pulled down with GST-Jun from UV-irradiated HeLa or IL-1β treated βTC-3 cells; type: biochemical; conditions: 25 μM peptide, 20 minutes
# Experimental: The effects of the L-TAT or inventive L-TAT-IB1(s) peptides on JNKs activated by stressful stimuli were evaluated using GST-Jun to pull down JNKs from UV-light irradiated HeLa cells or IL-1β treated PTC cells. PTC cells were cultured as described above. HeLa cells were cultured in DMEM medium supplemented with 10% Fetal Calf Serum, 100 μg/mL Streptomycin, 100 units/ml Penicillin and 2 mM Glutamine. One hour prior to being used for cell extract preparation, PTC cells were activated with IL-1β as described above, whereas HeLa cells were activated by UV-light (20 J/m^2). Cell extracts were prepared from control, UV-light irradiated HeLa cells and IL-1β treated βTC-3 cells by scraping the cell cultures in lysis buffer (20 mM Tris-acetate, 1 mM EGTA, 1% Triton X-100, 10 mM p-nitrophenyl-phosphate, 5 mM sodium pyrophosphate, 10 mMP-glycerophosphate, 1 mM dithiothreitol). Debris was removed by centrifugation for five minutes at 15,000 rpm in an SS-34 Beckman rotor. One-hundred μg extracts were incubated for one hour at room temperature with one μg GST-jun (amino acids 1-89) and 10 μL of glutathione-agarose beads (Sigma). Following four washes with the scraping buffer, the beads were resuspended in the same buffer supplemented with L-TAT or inventive L-TAT-IB1(s) peptides (25 μM) for 20 minutes. […]
molecule,measurement,setting,value
N#CC(c1ccnc(NCCc2cccnc2)n1)c1nc2ccccc2s1 (centres unmarked) [AS601245],protection against delayed loss of hippocampal CA1 neurons,gerbil,significant protection against the delayed loss of hippocampal CA1 neurons
CCSCc1ccc2c(c1)c1c3c(c4c5cc(CSCC)ccc5n5c4c1n2[C@H]1C[C@](O)(C(=O)OC)[C@]5(C)O1)CNC3=O [CEP-1347],neuronal survival,[1],promotes neuronal survival at dosages that inhibit activation of the c-Jun amino-terminal kinases (JNKs)
H-GRKKRRQRRRPPRPKRPTTLNLFPQVPRSQD-OH [L-TAT-IB1(s)],formation of the AP-1 DNA binding complex,AP-1 DNA binding complex,decrease the formation of the AP-1 DNA binding complex in the presence of TNF-α
same,prevention of irradiation induced apoptosis,WiDr cells,able to prevent irradiation induced apoptosis
IPSPSVEEPHKHRPTTLRLTTLGAQDS (IPSPSVEEPHKHRPTTLRLTTLGAQDS) [IB2],efficiency in binding JNK relative to c-Jun or ATF2,JNK,approximately 100 fold
NH2-GRKKRRQRRR-COOH (H-GRKKRRQRRR-OH) [L-TAT],entry of fluorescein labeled peptide into cells,"βTC-3 cell cultures; 1 μM labeled peptide added to culture medium, fluorescence microscope",efficiently and rapidly (less than five minutes) entered cells
NH2-RRRQRRKKRG-COOH (D-amino acids) [D-TAT],stability inside the cells,βTC-3 cell cultures,extremely stable inside the cells
PGTGCGDTYRPKRPTTLNLFPQVPRSQDT (PGTGCGDTYRPKRPTTLNLFPQVPRSQDT) [IB1],efficiency in binding JNK relative to c-Jun or ATF2,JNK,approximately 100 fold
TAT-IB(s): enantiomer not worded; the examples concerned name L-TAT-IB1(s) (SEQ ID NO: 9) as the tested peptide (GRKKRRQRRRPPRPKRPTTLNLFPQVPRSQD),activation of c-Jun following MKK4 and MKK7 mediated activation of JNK (luciferase),"[2]; 1 μM peptide, luciferase measured 16 hours later",blocked activation of c-Jun following MKK4 and MKK7 mediated activation of JNK
same,activation of c-Jun in cells transfected with JNK3,"[2]; HeLa cells transfected with JNK3, 1 μM peptide",inhibited JNK2 mediated activation of c-Jun
same,inhibition of IL-1-induced apoptosis,"βTC-3 cells; 1 μM peptide, second addition at 24 hours, IL-1β 10 ng/mL for two days",inhibited IL-1-induced apoptosis of βTC-3 cells
same,long term protection against IL-1 induced apoptosis,"βTC-3 cells; 12 days, peptide 1 μM added each day, IL-1β every 2 days",confers strong protection against apoptosis
same,inhibition of JNK3 phosphorylation of Elk1,JNK3,absence of TAT-IB(s) inhibition of JNK3 phosphorylation of Elk1
same,"inhibition of JNK family phosphorylation of target transcription factors, overall",[3],superior effects in inhibiting JNK family phosphorylation of their target transcription factors
same,"peptide dose giving nearly complete inhibition of c-Jun, ATF2 and Elk1 phosphorylation by JNKs","[3]; dose response 0-25 μM, doses as low as",2.5 µM
same,prevention of phosphorylation of c-Jun by activated JNKs,[4],efficiently prevented phosphorylation of c-Jun by activated JNKs
"TDQSRPVQPFLNLTTPRKPRYTDPPRRRQRRKKRG (TDQSRPVQPFLNLTTPRKPRYTDPPRRRQRRKKRG) [D-TAT-IB1, reference compound]",decrease of IL-1 induced apoptosis,"βTC-3 cells; one single addition of peptide 1 μM, two days of IL-1β",decreased IL-1 induced apoptosis to a similar extent as L-TAT-IB peptides
